In the experiment the test system is L1210 leukemia ip in BDF1 mice, survival T/C. Put plainly: NCI In Vivo Anticancer Drug Screen. Data for tumor model L1210 Leukemia (intraperitoneal) in B6D2F1 (BDF1) mice. The settings on record: higher = longer survival. The gist of the method: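 Each compound was tested against a transplantable tumor grown in mice. The endpoint was survival, with treated animals benchmarked against vehicle controls as a simple ratio.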

[1] abbreviates: endpoint: mean survival time, dose: 100.0 mg/kg/injection, schedule: Q01DX009 (ip), vehicle: saline with Tween-80.
Where [2] appears, read: endpoint: mean survival time, dose: 100.0 mg/kg/injection, schedule: Q04DX003 (ip), vehicle: saline with Tween-80.
[3] abbreviates: endpoint: mean survival time, dose: 200.0 mg/kg/injection, schedule: Q01DX009 (ip), vehicle: saline with Tween-80.
Setting [4] is: endpoint: mean survival time, dose: 200.0 mg/kg/injection, schedule: Q04DX003 (ip), vehicle: saline with Tween-80.
The mark [5] stands for this setting: endpoint: mean survival time, dose: 400.0 mg/kg/injection, schedule: Q04DX003 (ip), vehicle: saline with Tween-80.
[6] abbreviates: endpoint: mean survival time, dose: 100.0 mg/kg/injection, schedule: Q01DX009 (ip), vehicle: Klucel (hydroxypropylcellulose) (HPC).
Setting [7] is: endpoint: mean survival time, dose: 100.0 mg/kg/injection, schedule: Q04DX003 (ip), vehicle: Klucel (hydroxypropylcellulose) (HPC).
[8] abbreviates: endpoint: mean survival time, dose: 200.0 mg/kg/injection, schedule: Q01DX009 (ip), vehicle: Klucel (hydroxypropylcellulose) (HPC).
The mark [9] stands for this setting: endpoint: mean survival time, dose: 200.0 mg/kg/injection, schedule: Q04DX003 (ip), vehicle: Klucel (hydroxypropylcellulose) (HPC).
[10] abbreviates: endpoint: mean survival time, dose: 400.0 mg/kg/injection, schedule: Q04DX003 (ip), vehicle: Klucel (hydroxypropylcellulose) (HPC).
Where [11] appears, read: endpoint: mean survival time, dose: 100.0 mg/kg/injection, schedule: Q01DX009 (ip), vehicle: saline.
The mark [12] stands for this setting: endpoint: mean survival time, dose: 200.0 mg/kg/injection, schedule: Q01DX009 (ip), vehicle: saline.
[13] abbreviates: endpoint: mean survival time, dose: 400.0 mg/kg/injection, schedule: Q01DX009 (ip), vehicle: saline.

Values joined by “and” are separate entries in the source; they are usually repeats but may differ in a detail not shown here. Equal entries are not always repeated. Inconclusive results and toxic doses are left out.

Regarding `C1=Nc2c(ncnc2SCc2ccccc2)NN1`, the T/C is 100 % of control (endpoint: mean survival time, dose: 5.0 mg/kg/injection, schedule: Q01DX001 (ip), vehicle: other); 106 % of control (endpoint: mean survival time, dose: 10.0 mg/kg/injection, schedule: Q01DX001 (ip), vehicle: other); 100 % of control (endpoint: mean survival time, dose: 20.0 mg/kg/injection, schedule: Q01DX001 (ip), vehicle: other); 100 % of control (endpoint: mean survival time, dose: 40.0 mg/kg/injection, schedule: Q01DX001 (ip), vehicle: other); 113 % of control (endpoint: mean survival time, dose: 50.0 mg/kg/injection, schedule: Q01DX001 (ip), vehicle: other); 93 % of control (endpoint: mean survival time, dose: 80.0 mg/kg/injection, schedule: Q01DX001 (ip), vehicle: other). Moreover, the T/C (endpoint: mean survival time, dose: 100.0 mg/kg/injection, schedule: Q01DX001 (ip), vehicle: other) was 88 % of control.
In the case of `CCN=C(c1ccc(NC(=O)c2ccc(C(=O)Nc3ccc(C(=NCC)N(CC)C(=O)NCC(=O)OCC)cc3)cc2)cc1)N(CC)C(=O)NCC(=O)OCC`, the T/C is 109 % of control (endpoint: mean survival time, dose: 3.12 mg/kg/injection, schedule: Q01DX015 (ip), vehicle: methylcellulose (MC)); 155 % of control (endpoint: mean survival time, dose: 12.5 mg/kg/injection, schedule: Q01DX015 (ip), vehicle: methylcellulose (MC)); 101 % of control (endpoint: mean survival time, dose: 25.0 mg/kg/injection, schedule: Q01DX015 (ip), vehicle: methylcellulose (MC)).
Regarding `COc1ccc(OC)c(CCC(O)CCc2cc(OC)ccc2OC)c1`, the T/C runs as follows: under setting [1], 99 % of control; under setting [2], 96 % of control; under setting [3], 90 % of control; under setting [4], 98 % of control; (endpoint: mean survival time, dose: 400.0 mg/kg/injection, schedule: Q01DX009 (ip), vehicle: saline with Tween-80) 94 % of control; under setting [5], 94 % of control.
As to `Cc1ccc(C)c(NC(=O)NCc2ccccc2Cl)c1`, the T/C under setting [6] is 103 % of control; the T/C under setting [7] was 104 % of control; the T/C under setting [8] was 101 % of control; the T/C under setting [9] was 98 % of control; the T/C (endpoint: mean survival time, dose: 400.0 mg/kg/injection, schedule: Q01DX009 (ip), vehicle: Klucel (hydroxypropylcellulose) (HPC)) is 93 % of control; the T/C under setting [10] is 89 % of control.
Consider `CNC(=O)C1C2C=CC(CC2)C1C(=O)NC` (stereo not drawn), for which the T/C runs as follows: under setting [2], 108 % of control; under setting [4], 100 % of control; under setting [5], 100 % of control.
With `Cc1c2ccccc2c(CN(C)CC(=O)O)c2ccccc12`, the T/C runs as follows: (endpoint: mean survival time, dose: 50.0 mg/kg/injection, schedule: Q01DX009 (ip), vehicle: saline with Tween-80) 92 % of control; under setting [1], 90 % of control; under setting [3], 92 % of control.
On to `Cc1ccc2c(c1)P(=O)(O)c1cc(Cl)ccc1O2`, for which the T/C is 98 % of control (endpoint: mean survival time, dose: 50.0 mg/kg/injection, schedule: Q01DX009 (ip), vehicle: saline); 100 % of control under setting [11]; 102 % of control under setting [12]; 98 % of control under setting [13]; 109 % of control (endpoint: median survival time, dose: 64.8 mg/kg/injection, schedule: Q01DX009 (ip), vehicle: water); 107 % of control (endpoint: median survival time, dose: 108.0 mg/kg/injection, schedule: Q01DX009 (ip), vehicle: water). For the same molecule, the T/C is 103 % of control (endpoint: median survival time, dose: 130.0 mg/kg/injection, schedule: Q04DX003 (ip), vehicle: water); 109 % of control (endpoint: median survival time, dose: 180.0 mg/kg/injection, schedule: Q01DX009 (ip), vehicle: water); 102 % of control (endpoint: median survival time, dose: 216.0 mg/kg/injection, schedule: Q04DX003 (ip), vehicle: water); 112 % of control (endpoint: median survival time, dose: 300.0 mg/kg/injection, schedule: Q01DX009 (ip), vehicle: water); 103 % of control (endpoint: median survival time, dose: 360.0 mg/kg/injection, schedule: Q04DX003 (ip), vehicle: water).
Regarding `CC(C)N(C(=O)Nc1cccc(F)c1)C1CCCCC1`, the T/C is 105 % of control (endpoint: mean survival time, dose: 50.0 mg/kg/injection, schedule: Q01DX009 (ip), vehicle: gum acacia); 100 % of control and 88 % of control (endpoint: mean survival time, dose: 100.0 mg/kg/injection, schedule: Q01DX009 (ip), vehicle: gum acacia); 94 % of control (endpoint: mean survival time, dose: 200.0 mg/kg/injection, schedule: Q01DX009 (ip), vehicle: gum acacia); 90 % of control (endpoint: mean survival time, dose: 400.0 mg/kg/injection, schedule: Q01DX009 (ip), vehicle: gum acacia).
Take `C[C@H]1C[C@@H]2[C@H]([C@@H](O)C[C@@]3(C)[C@H]2CC[C@]3(O)C(=O)CO)[C@@]2(C)C=CC(=O)C=C12`: the T/C is 104 % of control (endpoint: mean survival time, dose: 6.25 mg/kg/injection, schedule: Q01DX009 (ip), vehicle: Klucel (hydroxypropylcellulose) (HPC)); 104 % of control (endpoint: mean survival time, dose: 12.5 mg/kg/injection, schedule: Q01DX009 (ip), vehicle: Klucel (hydroxypropylcellulose) (HPC)); 107 % of control (endpoint: mean survival time, dose: 12.5 mg/kg/injection, schedule: Q01DX Z (sc), vehicle: water); 102 % of control (endpoint: mean survival time, dose: 25.0 mg/kg/injection, schedule: Q01DX009 (ip), vehicle: Klucel (hydroxypropylcellulose) (HPC)); 108 % of control (endpoint: mean survival time, dose: 25.0 mg/kg/injection, schedule: Q01DX Z (sc), vehicle: water); 98 % of control (endpoint: mean survival time, dose: 50.0 mg/kg/injection, schedule: Q01DX009 (ip), vehicle: Klucel (hydroxypropylcellulose) (HPC)). In addition, the T/C reads like this: (endpoint: mean survival time, dose: 50.0 mg/kg/injection, schedule: Q01DX Z (sc), vehicle: water) 107 % of control; under setting [6], 107 % of control; (endpoint: mean survival time, dose: 100.0 mg/kg/injection, schedule: Q01DX Z (sc), vehicle: water) 110 % of control; under setting [8], 104 % of control; (endpoint: mean survival time, dose: 200.0 mg/kg/injection, schedule: Q01DX Z (sc), vehicle: water) 115 % of control.
On to `CCOC(=O)c1cc2cc([N+](=O)[O-])ccc2oc1=O`, for which the T/C reads like this: under setting [7], 93 % of control; under setting [9], 93 % of control; under setting [10], 94 % of control.
`CC/C=C/C1(C(C)C)C(=O)NC(=O)NC1=O` (tested in a mixture with another compound): the T/C (endpoint: mean survival time, dose: 75.0 mg/kg/injection, schedule: Q01DX001 (ip), vehicle: saline) was 100 % of control; the T/C (endpoint: mean survival time, dose: 150.0 mg/kg/injection, schedule: Q01DX001 (ip), vehicle: saline) is 94 % of control; the T/C (endpoint: mean survival time, dose: 300.0 mg/kg/injection, schedule: Q01DX001 (ip), vehicle: saline) is 94 % of control.
Take `O=C(COc1ccc(Cl)c(Cl)c1)Nc1ccc[n+](Cc2cccc([N+](=O)[O-])c2)c1`: the T/C is 95 % of control (endpoint: mean survival time, dose: 100.0 mg/kg/injection, schedule: Q01DX001 (ip), vehicle: Klucel (hydroxypropylcellulose) (HPC)); 94 % of control (endpoint: mean survival time, dose: 200.0 mg/kg/injection, schedule: Q01DX001 (ip), vehicle: Klucel (hydroxypropylcellulose) (HPC)); 94 % of control (endpoint: mean survival time, dose: 400.0 mg/kg/injection, schedule: Q01DX001 (ip), vehicle: Klucel (hydroxypropylcellulose) (HPC)).
Consider `O=c1cnn(C2OC(CO)C(O)C2O)c(=S)[nH]1` (stereo not drawn), for which the T/C (endpoint: mean survival time, dose: 100.0 mg/kg/injection, schedule: Q01DX005 (ip), vehicle: saline) is 113 % of control; the T/C under setting [11] was 124 % of control; the T/C (endpoint: mean survival time, dose: 200.0 mg/kg/injection, schedule: Q01DX005 (ip), vehicle: saline) was 108 % of control; the T/C under setting [12] was 123 % of control; the T/C under setting [13] is 117 % of control.
As for `CN(Cc1cnc2nc(N)nc(N)c2n1)c1ccc(C(=O)NC(CCC(=O)NCC(=O)O)C(=O)O)cc1` (stereo not drawn), the T/C reads like this: (endpoint: mean survival time, dose: 5.0 mg/kg/injection, schedule: Q01DX009 (ip), vehicle: sodium bicarbonate) 174 % of control; (endpoint: mean survival time, dose: 10.0 mg/kg/injection, schedule: Q01DX009 (ip), vehicle: sodium bicarbonate) 161 % of control.
As to `O=[N+]([O-])c1cccc(NCn2c(=S)[nH]c3ccccc32)c1`, the T/C under setting [6] is 102 % of control and the T/C under setting [8] was 106 % of control.
Consider `ClC(Cl)(Cl)c1cccc(C(Cl)(Cl)Cl)n1`, for which the T/C reads like this: (endpoint: mean survival time, dose: 100.0 mg/kg/injection, schedule: Q04DX003 (sc), vehicle: olive oil, sesame oil, peanut oil) 97 % of control and 103 % of control; (endpoint: mean survival time, dose: 200.0 mg/kg/injection, schedule: Q04DX003 (sc), vehicle: olive oil, sesame oil, peanut oil) 97 % of control and 103 % of control; (endpoint: mean survival time, dose: 400.0 mg/kg/injection, schedule: Q04DX003 (sc), vehicle: olive oil, sesame oil, peanut oil) 100 % of control and 101 % of control.
Consider `O=C1C=CC(=O)N1c1ccc2c(c1)Cc1ccccc1-2`, for which the T/C (endpoint: mean survival time, dose: 50.0 mg/kg/injection, schedule: Q04DX003 (ip), vehicle: saline with Tween-80) is 98 % of control; the T/C under setting [2] is 108 % of control and 115 % of control; the T/C under setting [4] was 87 % of control.

The record behind these values is PubChem BioAssay AID248 (DTP/NCI, 2004).
